Literature values, collected in patent publication US20050074494A1, “Itraconazole immediate release formulation” (priority 2003, published 2005).

solubility in alcohols (alcohols): very slightly soluble | solubility in dichloromethane (dichloromethane): freely soluble | solubility in water (water): insoluble
SMILES: CCC(C)n1ncn(-c2ccc(N3CCN(c4ccc(OCC5COC(Cn6cncn6)(c6ccc(Cl)cc6Cl)O5)cc4)CC3)cc2)c1=O (stereo not drawn) [Itraconazole, 4-[4-[4-[4-[[2-(2,4-dichlorophenyl)-2-(1H-1,2,4-triazol-1-ylmethyl)-1,3-dioxolan-4-yl]methoxy]phenyl]-1-piperazinyl]phenyl]-2,4-dihydro-2-(1-methylpropyl)-3H-1,2,4-triazol-3-one]
